{
  "source": "ChEMBL document CHEMBL4725410",
  "about": "“Novel Heteroaromatic Compounds as Vanin Inhibitors” (ACS Med Chem Lett, 2020)",
  "data": [
    {"target": "T1, Pantetheinase (Homo sapiens, UniProt O95497)", "T1 sequence (O95497 whole entry)": "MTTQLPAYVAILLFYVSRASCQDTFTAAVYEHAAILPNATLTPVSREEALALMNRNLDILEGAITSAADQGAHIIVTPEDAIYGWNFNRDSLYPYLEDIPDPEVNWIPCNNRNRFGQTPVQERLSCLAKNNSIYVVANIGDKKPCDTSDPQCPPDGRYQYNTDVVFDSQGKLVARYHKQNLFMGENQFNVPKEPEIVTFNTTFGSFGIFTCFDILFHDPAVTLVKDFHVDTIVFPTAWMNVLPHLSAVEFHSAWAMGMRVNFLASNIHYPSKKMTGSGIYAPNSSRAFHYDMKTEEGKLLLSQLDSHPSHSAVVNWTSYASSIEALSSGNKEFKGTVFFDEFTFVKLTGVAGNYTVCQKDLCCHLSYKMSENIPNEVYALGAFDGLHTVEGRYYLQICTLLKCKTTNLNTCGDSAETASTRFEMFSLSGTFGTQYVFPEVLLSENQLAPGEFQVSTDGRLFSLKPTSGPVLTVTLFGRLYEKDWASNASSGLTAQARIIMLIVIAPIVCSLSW", "experiment": "Inhibition of human vanin-1 in whole blood", "assay_type": "tissue-based", "units": {"IC50": "nM"}, "values": [
      {"compound": "CN(C(=O)C1CC(F)(F)C1)[C@H]1CCN(C(=O)c2ccc(NC(C)(C)C)nc2)C1", "IC50": 3.6},
      {"compound": "CC(C)(C)Nc1ccc(C(=O)N2CC(C)(c3ccccn3)C2)cn1", "IC50": 2.7},
      {"compound": "CN(C(=O)[C@@H]1CCCO1)[C@H]1CCN(C(=O)c2ccc(NC(C)(C)C)nc2)C1", "IC50": 2.7},
      {"compound": "CC(C)(C)Nc1ccc(C(=O)N2CC[C@H](N3CCOC3=O)C2)cn1", "IC50": 4},
      {"compound": "CCC(C)(C)Nc1ccc(C(=O)N2CC[C@H](N(C)C(C)=O)C2)cn1", "IC50": 3.1},
      {"compound": "CC(=O)N(C)[C@H]1CCN(C(=O)c2ccc(NC(C)(C)CCO)nc2)C1", "IC50": 1.6}
    ]}
  ]
}
